Source: patent publication US20180271808A1, “METHODS OF REDUCING CHEMORESISTANCE AND TREATING CANCER” (Mitchell Woods Pharmaceuticals, Inc., priority 2015, published 2018)
Read-outs that look alike come from different tables or passages of the source.

Columns and labels:
[1] = test system: phospho-PKM2 (Ser37) in PANC-1 cells; assay: Immunofluorescence confocal measurement of nuclear phospho-PKM2; assay type: cell-based, human; conditions: PANC-1, 1 μM 10 minutes, basal and after AM251 stimulation
Description: Measurement of nuclear phospho-PKM2. PANC-1 cells were seeded on Lab-Tek II CC2 chamber slides (Thermo Scientific Nunc, Rochester, N.Y.) and grown until they reached >70% confluence. […] The GPR55 agonist AM251 (1 μM) was added for 20 minutes where indicated. Cells were washed twice with PBS, fixed with 4% (v/v) paraformaldehyde (Sigma-Aldrich) in PBS for 20 minutes at room temperature, followed by 3×PBS washes and permeabilization with 0.1% Triton X-100 (Sigma-Aldrich) for 15 minutes. Next, the cells were incubated with 10% goat serum for 1 hour, followed by overnight incubation with rabbit polyclonal anti-phospho-PKM2 antibody (Ser37, 1:200) at 4° C. After 3×PBS washes, Alexa Fluor 488-conjugated goat anti-rabbit antibody (Invitrogen; 1:1000) was added to the slides for 2 hours at room temperature. The slides were washed with PBS and mounted in Prolong Gold antifade mounting medium containing DAPI (4′,6-diamidino-2-phenylindole) (Invitrogen) for nuclear counterstaining. The slides were cured for 24 hours at room temperature in the dark, after which images were acquired with a Zeiss LSM 710 confocal microscope using Carl Zeiss LSM software (Thorn-wood, NY). ImageJ software was used to quantify the changes in the nuclear pool of phospho-PKM2 levels.

GPR55 (PANC-1 cells) = assay: Western blot of cancer biomarker and MDR proteins in PANC-1 cell lysates; conditions: for AM251-induced increase in BCRP expression: PANC-1, antagonist 1 μM before AM251 1 μM
Description: (§5) In the first series of experiments, PANC-1 cells were incubated with media containing vehicle (0.01% DMSO) or MNF (10, 100, 500 and 1000 nM) for 24 hours. The medium was removed, and cells were collected and processed for immunoblot analysis. […] Cell lysates were processed for immunoblot analysis, focusing on the expression of selected cancer cell biomarkers. In the third series of experiments, serum-starved PANC-1 cells were pretreated with vehicle (0.01% DMSO), 1 μM MNF, or 1 μM CID for 10 minutes followed by a 20 minute incubation with and without 1 AM251. Cell lysates were processed for immunoblot analysis and the levels of phospho-active (Ser473) and total forms of AKT were determined. All experiments were repeated three times on three separate days, unless stated otherwise.
Cells were lysed in radioimmuno precipitation buffer containing EGTA and EDTA (Boston BioProducts, Ashland, Mass.) supplemented with protease inhibitor cocktail (Sigma-Aldrich). Protein concentration in clarified lysates was determined using the bicinchoninic acid reagent (Thermo Fisher Scientific). […] Western blots were performed according to standard methods, which involved a blocking step in Tris-buffered saline/0.1% Tween-20 (TBS-T) supplemented with 5% non-fat milk and incubation with primary antibodies of interest. All membrane-bound primary antibodies were detected with horseradish peroxidase-conjugated secondary antibodies (Santa Cruz Biotechnology, Dallas, Tex.) and visualized by enhanced chemiluminescence (ECL Plus, GE Healthcare, Piscataway, N.J.). Quantification of the protein bands was performed by volume densitometry using ImageJ software (National Institutes of Health, Bethesda, Md.) and normalization to β-actin or Lamin A/C. […] The antibodies were used at the dilution recommended by the manufacturers.

[2] = test system: AKT phosphorylation (PANC-1 cells); assay: Western blot of phospho-active (Ser473) and total AKT in PANC-1 cells; conditions: PANC-1, 1 μM 10 minutes, basally and after AM251 20 minutes
Description: as §5

[3] = test system: HIF-1α, phospho-PKM2 (Ser37), phospho-β-catenin (Tyr333) in PANC-1 nuclear extracts; assay: Western blot of nuclear translocation of cancer biomarkers in PANC-1 nuclear extracts; assay type: cell-based, human; conditions: PANC-1, 1 μM, 10 minutes, with and without AM251 1 μM 20 minutes
Description: Nuclear protein extraction was carried out using a NE-PER Kit followed by the determination of the levels of HIF-1α and phospho-active forms of β-catenin (Tyr333) and PKM2 (Ser37) by immunoblotting. The same experiment was repeated three times on three separate days.
Cells were lysed in radioimmuno precipitation buffer containing EGTA and EDTA (Boston BioProducts, Ashland, Mass.) supplemented with protease inhibitor cocktail (Sigma-Aldrich). Protein concentration in clarified lysates was determined using the bicinchoninic acid reagent (Thermo Fisher Scientific). Proteins (20 μg/well) were separated on 4-12% precast gels (Invitrogen, Carlsbad, Calif.) using SDS-polyacrylamide gel electrophoresis under reducing conditions and then electrophoretically transferred onto polyvinylidenefluoride membrane (Invitrogen). […] All membrane-bound primary antibodies were detected with horseradish peroxidase-conjugated secondary antibodies (Santa Cruz Biotechnology, Dallas, Tex.) and visualized by enhanced chemiluminescence (ECL Plus, GE Healthcare, Piscataway, N.J.). Quantification of the protein bands was performed by volume densitometry using ImageJ software (National Institutes of Health, Bethesda, Md.) and normalization to β-actin or Lamin A/C. […]

PANC-1 cells [4] = assay: Intracellular uptake of doxorubicin (fluorescence imaging) in PANC-1 cells; assay type: cell-based, human; conditions: PANC-1, MNF 1 μM 24 hours, then doxorubicin 0.125 μM 2 hours, vs control cells
Description: (§1) PANC-1 and MDA-MB-231 cells were seeded on Lab-Tek II CC2 chamber slides and grown until they reached >70% confluence. The original media was removed and cells were incubated in fresh media supplemented with vehicle (0.01% DMSO) or 1 μM MNF for 24 hours, after which doxorubicin (0.125 μM) was added for an additional 2 hours. The cells were washed with PBS and the images were acquired with a Zeiss axiovert 200 microscope using standard FITC filter (#09 filter set) and Carl Zeiss LSM software. ImageJ software was used to quantify the changes in the nuclear accumulation of doxorubicin defined as ring-shaped regions of interest (ROI).

MDA-MB-231 cells = assay: Intracellular uptake of doxorubicin (fluorescence imaging) in MDA-MB-231 cells; assay type: cell-based, human; conditions: MDA-MB-231, MNF 1 μM 24 hours, then doxorubicin 0.125 μM 2 hours, vs control cells
Description: as §1

MCF-7 cells = assay: [3H]-thymidine incorporation (proliferation) in MCF-7 cells; assay type: cell-based, human; conditions: MCF-7 (low GPR55), MNF 24 hours
Description: (§2) [^3H]-Thymidine incorporation studies. Cells were seeded in 24-well plates at 2.5×10^4 cells per well and grown for 24 hours at 37° C. The effect of MNF (0-10 μM) on [^3H]-thymidine incorporation into PANC-1, MDA-MB-231, and MCF-7 cells was investigated following procedures previously described in Paul, et al., Cannabinoid receptor activation correlates with the proapoptotic action of the β2-adrenergic agonist (R,R′)-4-methoxy-1-naphthylfenoterol in HepG2 hepatocarcinoma cells, J. Pharmacol. Exp. Ther., vol. 343, pgs 157-166 (2012); and Paul, et al., (R,R′)-4′-methoxy-1-naphthylfenoteroltargets GPR55-mediated ligand internalization and impairs cancer cellmotility, Biochem. Pharmacol., vol. 87, pgs 547-561 (2014). The effect of MNF on doxorubicin cytotoxicity in PANC-1 cells was measured using [^3H]-thymidine incorporation. In these studies, the cells were incubated with either fresh medium containing vehicle (0.01% DMSO) or MNF (1 μM) for 24 hours. The spent media was removed and replaced with fresh media supplemented with doxorubicin (0-10 μM) and the cells incubated for an additional 24 hours. [^3H]-Thymidine (1 μCi per well) incorporation into DNA was then performed for 16 hours. Cells were washed with PBS, lysed in 600 μt of 0.1 N NaOH, and the radioactivity was measured by liquid scintillation counting. Three independent experiments were conducted on separate days. […]

PANC-1 cells [5] = assay: [3H]-thymidine incorporation (proliferation / cytotoxicity) in PANC-1 cells; assay type: cell-based, human; conditions: for IC50: Homo sapiens; for fold decrease in calculated IC50 by MNF pretreatment: PANC-1, MNF 1 μM 24 hours pretreatment
Description: (§3) [^3H]-Thymidine incorporation studies. Cells were seeded in 24-well plates at 2.5×10^4 cells per well and grown for 24 hours at 37° C. The effect of MNF (0-10 μM) on [^3H]-thymidine incorporation into PANC-1, MDA-MB-231, and MCF-7 cells was investigated following procedures previously described in Paul, et al., Cannabinoid receptor activation correlates with the proapoptotic action of the β2-adrenergic agonist (R,R′)-4-methoxy-1-naphthylfenoterol in HepG2 hepatocarcinoma cells, J. Pharmacol. Exp. Ther., vol. 343, pgs 157-166 (2012); and Paul, et al., (R,R′)-4′-methoxy-1-naphthylfenoteroltargets GPR55-mediated ligand internalization and impairs cancer cellmotility, Biochem. Pharmacol., vol. 87, pgs 547-561 (2014). The effect of MNF on doxorubicin cytotoxicity in PANC-1 cells was measured using [^3H]-thymidine incorporation. In these studies, the cells were incubated with either fresh medium containing vehicle (0.01% DMSO) or MNF (1 μM) for 24 hours. The spent media was removed and replaced with fresh media supplemented with doxorubicin (0-10 μM) and the cells incubated for an additional 24 hours. [^3H]-Thymidine (1 μCi per well) incorporation into DNA was then performed for 16 hours. Cells were washed with PBS, lysed in 600 μt of 0.1 N NaOH, and the radioactivity was measured by liquid scintillation counting. Three independent experiments were conducted on separate days. Similar experiments were conducted to investigate the effect of MNF on the cytotoxicity of gemcitabine (0-10 μM) in PANC-1 cells. The effects of MNF (1 μM) on the cytotoxicity of doxorubicinin MDA-MB-231 cells and of MNF (0.01 μM) on the cytotoxicity of doxorubicin in U87MG cells were investigated using the protocol described above.
(§4) Sigmoidal dose-response curves (IC50 curves) were determined using the ‘nonlinear regression (curve fit)’ model contained within the Prism 4 software package (GraphPad Software, Inc., La Jolla, Calif.) running on a personal computer. For immunoblot analyses, statistical comparisons between treated and control groups were performed using unpaired Student's t-tests. Data are expressed as relative fold change ±standard deviation. P values ≤0.05 were considered significant.

[6] = test system: MDA-MB-231 breast cancer cells; assay: [3H]-thymidine incorporation (proliferation / cytotoxicity) in MDA-MB-231 cells; assay type: cell-based, human; conditions: for IC50: Homo sapiens
Description: as §3, §4

[7] = test system: Pgp, BCRP in PANC-1 nuclear extracts; assay: Immunoblot of Pgp and BCRP in PANC-1 nuclear extracts; assay type: cell-based, human; conditions: MNF 0.5 and 1 μM, 24 hours
Description: Values were normalized to PANC-1 cells treated with 0.01% DMSO as control. Data are expressed as mean±SD from 3 independent experiments. FIG. 5C presents fluorescence imaging of intracellular doxorubicin in PANC-1 cells pretreated with MNF (1 μM) for 24 hours and followed with 0.125 μM of doxorubicin treatment for 2 hours. The upper panel of FIG. 5D presents representative immunoblot depicting protein levels of Pgp, BCRP, and lamin A/C in PANC-1 nuclear extracts after cell treatment with 0.5 and 1 μM of MNF for 24 hours. In the lower panel of FIG. 5D, protein bands were quantified by densitometry and the data normalized to lamin A/C levels and plotted relative to cells treated with 0.01% DMSO as control.
Cells were lysed in radioimmuno precipitation buffer containing EGTA and EDTA (Boston BioProducts, Ashland, Mass.) supplemented with protease inhibitor cocktail (Sigma-Aldrich). Protein concentration in clarified lysates was determined using the bicinchoninic acid reagent (Thermo Fisher Scientific). […] All membrane-bound primary antibodies were detected with horseradish peroxidase-conjugated secondary antibodies (Santa Cruz Biotechnology, Dallas, Tex.) and visualized by enhanced chemiluminescence (ECL Plus, GE Healthcare, Piscataway, N.J.). […]

U87MG glioblastoma cells = assay: [3H]-thymidine incorporation (doxorubicin cytotoxicity) in U87MG cells; assay type: cell-based; conditions: Homo sapiens, U-87 MG
Description: as §2, with “The spent media was removed and replaced with fresh media supplemented with doxorubicin (0-10 μM) and the cells incubated for an additional 24 hours. [^3H]-Thymidine (1 μCi per well) incorporation into DNA was then performed for 16 hours.” left out, “counting.” for “counting. Three independent experiments were conducted on separate days.”
Sigmoidal dose-response curves (IC50 curves) were determined using the ‘nonlinear regression (curve fit)’ model contained within the Prism 4 software package (GraphPad Software, Inc., La Jolla, Calif.) running on a personal computer. […] Data are expressed as relative fold change ±standard deviation. […]

[8] = PANC-1, MNF 1 μM 24 hours, medium replaced, then drug 0-10 μM 24 hours, read-out: calculated IC50 of chemotherapeutic drug, after MNF pretreatment
[9] = PANC-1, vehicle (0.01% DMSO) 24 hours, then drug 0-10 μM 24 hours, read-out: calculated IC50 of chemotherapeutic drug, without MNF pretreatment

Structure (SMILES): Cc1ccc(-c2n[nH]c3c2C(c2cccc(O)c2)N(c2ccc(C(=O)O)cc2)C3=O)cc1 (centres unmarked) [CID]
- nuclear pool of phosphoactive form of PKM2 [1]: markedly reduced
- induction of EGFR, BCRP, PKM2 by AM251 (GPR55 (PANC-1 cells); PANC-1, 1 μM pretreatment 30 minutes, then AM251 1 μM 24 hours): blocked
- basal levels of EGFR, BCRP, and PKM2 proteins (GPR55 (PANC-1 cells); PANC-1, 1 μM, 24 hours): significantly reduced
- AM251-induced increase in BCRP expression (GPR55 (PANC-1 cells)): blocked
- activating phosphorylation of AKT [2]: significantly decreased
- constitutive and AM251-induced nuclear accumulation of HIF-1α and phosphoactive forms of PKM2 (Ser37) and β-catenin (Tyr333) [3]: significantly abrogated

Structure (SMILES): COc1ccc(C[C@@H](C)NC[C@H](O)c2cc(O)cc(O)c2)c2ccccc12 [MNF, (R,R′)-4′-methoxy-1-naphthyl-fenoterol]
- uptake and nuclear retention of doxorubicin (PANC-1 cells [4]): enhancement
- nuclear pool of phosphoactive form of PKM2 [1]: markedly reduced
- uptake and nuclear retention of doxorubicin (MDA-MB-231 cells): enhanced uptake and nuclear retention
- effect on the growth of MCF-7 cells (MCF-7 cells): no significant effect
- expression of cancer biomarkers (EGFR, β-catenin, PKM2, cyclin D1, Pgp, BCRP, MRP1, MRP5) (GPR55 (PANC-1 cells); PANC-1, MNF 10-1000 nM, 24 hours): dose-dependently reduces
- AM251-induced increase in BCRP expression (GPR55 (PANC-1 cells)): blocked
- activating phosphorylation of AKT [2]: significantly decreased
- IC50 (PANC-1 cells [5]; PANC-1, MNF 0-10 μM, 24 hours, mean±SD, read-out: IC50, inhibition in cell growth): 650 ± 250 nM
- maximum reduction in cell growth (PANC-1 cells [5]; PANC-1, MNF 0-10 μM, 24 hours, p<0.001): 42%
- constitutive and AM251-induced nuclear accumulation of HIF-1α and phosphoactive forms of PKM2 (Ser37) and β-catenin (Tyr333) [3]: significantly abrogated
- IC50 ([6]; MDA-MB-231, MNF 24 hours, read-out: IC50, inhibition in cell growth): 106 ± 3 nM
- dose-dependent inhibition in cell growth ([6]; MDA-MB-231, MNF 24 hours): 50%
- nuclear pool of Pgp and BCRP [7]: marked reduction

Structure (SMILES): COc1cccc2c1C(=O)c1c(O)c3c(c(O)c1C2=O)C[C@@](O)(C(=O)CO)C[C@@H]3O[C@H]1C[C@H](N)[C@H](O)[C@H](C)O1 [doxorubicin]
- IC50 (U87MG glioblastoma cells; MNF 0.01 μM 24 hours, then doxorubicin 24 hours, p<0.001, read-out: calculated IC50 of doxorubicin, after MNF pretreatment): 1.1 ± 0.5 nM
- IC50 (U87MG glioblastoma cells; doxorubicin 24 hours, read-out: calculated IC50 of doxorubicin, without MNF pretreatment): 6 ± 0.8 nM
- IC50 (PANC-1 cells [5]; [8]): 51 ± 2 nM
- IC50 (PANC-1 cells [5]; [9]): 193 ± 4 nM
- fold decrease in calculated IC50 by MNF pretreatment (PANC-1 cells [5]; p<0.001): ~4 fold
- IC50 ([6]; MDA-MB-231, MNF 1 μM 24 hours, then doxorubicin 0-10 μM 24 hours, p<0.05, read-out: calculated IC50 of doxorubicin, after MNF pretreatment): 255 ± 13 nM
- IC50 ([6]; MDA-MB-231, doxorubicin 0-10 μM 24 hours, read-out: calculated IC50 of doxorubicin, without MNF pretreatment): 570 ± 14 nM

Structure (SMILES): Nc1ccn([C@@H]2O[C@H](CO)[C@@H](O)C2(F)F)c(=O)n1 [gemcitabine]
- IC50 (PANC-1 cells [5]; [8]): 153 ± 3 nM
- IC50 (PANC-1 cells [5]; [9]): 487 ± 3 nM
- fold decrease in calculated IC50 by MNF pretreatment (PANC-1 cells [5]; p<0.001): ~3 fold
